Data reported in ChEMBL document CHEMBL4804286, “3-amino-4-(4-(4 (dimethylcarbamoyl) phenyl)-1,4-diazepan-1-yl) thieno [2,3-b] pyridine-2-carboxamide for use in cancer therapy and formulations comprising the same” (2020).
“And” between values parts separate entries of the source, which are not always exact repeats. Identical values can stand only once. The source made the active and inactive calls. The rule behind the calls is not given here.

Key:
[1] = target: Mast/stem cell growth factor receptor Kit (Homo sapiens) (UniProt P10721); test: Inhibition of human KIT assessed as percent of control at 2000 nM by KINOMEscan assay relative to control; set-up: scale not given: the % may be the effect or the level left
[2] = test system: Proto-oncogene tyrosine-protein kinase receptor Ret (Homo sapiens), P07949 [M918T]; test: Inhibition of human RET M918T mutant assessed as percent of control at 2000 nM by KINOMEscan assay relative to control; set-up: scale not given: the % may be the effect or the level left
[3] = target: Tyrosine-protein kinase ABL1 (Homo sapiens) (UniProt P00519); test: Inhibition of phosphorylated human ABL1 assessed as percent of control at 2000 nM by KINOMEscan assay relative to control; set-up: scale not given: the % may be the effect or the level left
[4] = target: Serine/threonine-protein kinase 32A (Homo sapiens) (UniProt Q8WU08); test: Inhibition of human YANK1 assessed as percent of control at 2000 nM by KINOMEscan assay relative to control; set-up: scale not given: the % may be the effect or the level left
[5] = target: Mitogen-activated protein kinase kinase kinase 20 (Homo sapiens) (UniProt Q9NYL2); test: Inhibition of human ZAK assessed as percent of control at 2000 nM by KINOMEscan assay relative to control; set-up: scale not given: the % may be the effect or the level left
[6] = test system: Tyrosine-protein kinase ABL1 (Homo sapiens), P00519 [Q252H]; test: Inhibition of phosphorylated human ABL1 Q252H mutant assessed as percent of control at 2000 nM by KINOMEscan assay relative to control; set-up: scale not given: the % may be the effect or the level left
[7] = test system: Receptor-type tyrosine-protein kinase FLT3 (Homo sapiens), P36888 [D835Y]; test: Inhibition of human FLT3 D835Y mutant assessed as percent of control at 2000 nM by KINOMEscan assay relative to control; set-up: scale not given: the % may be the effect or the level left
[8] = target: Tyrosine-protein kinase CSK (Homo sapiens) (UniProt P41240); test: Inhibition of human CSK assessed as percent of control at 2000 nM by KINOMEscan assay relative to control; set-up: scale not given: the % may be the effect or the level left
[9] = target: Ephrin type-B receptor 6 (Homo sapiens) (UniProt O15197); test: Inhibition of human EPHB6 assessed as percent of control at 2000 nM by KINOMEscan assay relative to control; set-up: scale not given: the % may be the effect or the level left
[10] = target: Mitogen-activated protein kinase 14 (Homo sapiens) (UniProt Q16539); test: Inhibition of human p38-alpha assessed as percent of control at 2000 nM by KINOMEscan assay relative to control; set-up: scale not given: the % may be the effect or the level left
CWR22R = test: Antitumor activity against human 22Rv1 cells expressing AR-V7 xenografted in male nude mouse assessed as suppression of tumor growth at 50 mg/kg, administered twice a day for 40 days; format: functional, organism-based
[11] = target: Proto-oncogene tyrosine-protein kinase ROS (Homo sapiens) (UniProt P08922); test: Inhibition of human ROS1 assessed as percent of control at 2000 nM by KINOMEscan assay relative to control; set-up: scale not given: the % may be the effect or the level left
[12] = target: Cytoplasmic tyrosine-protein kinase BMX (Homo sapiens) (UniProt P51813); test: Inhibition of human BMX assessed as percent of control at 2000 nM by KINOMEscan assay relative to control; set-up: scale not given: the % may be the effect or the level left
[13] = target: Calcium/calmodulin-dependent protein kinase type 1D (Homo sapiens) (UniProt Q8IU85); test: Inhibition of human CAMK1D assessed as percent of control at 2000 nM by KINOMEscan assay relative to control; set-up: scale not given: the % may be the effect or the level left
[14] = target: Mitogen-activated protein kinase kinase kinase kinase 5 (Homo sapiens) (UniProt Q9Y4K4); test: Inhibition of human MAP4K5 assessed as percent of control at 2000 nM by KINOMEscan assay relative to control; set-up: scale not given: the % may be the effect or the level left
[15] = target: Mitogen-activated protein kinase kinase kinase 10 (Homo sapiens) (UniProt Q02779); test: Inhibition of human MLK2 assessed as percent of control at 2000 nM by KINOMEscan assay relative to control; set-up: scale not given: the % may be the effect or the level left
[16] = test system: Phosphatidylinositol 4,5-bisphosphate 3-kinase catalytic subunit alpha isoform (Homo sapiens), P42336 [H1047L]; test: Inhibition of human PIK3CA H1047L mutant assessed as percent of control at 2000 nM by KINOMEscan assay relative to control; set-up: scale not given: the % may be the effect or the level left
[17] = test system: ALK tyrosine kinase receptor (Homo sapiens), Q9UM73 [C1156Y]; test: Inhibition of human ALK C1156Y mutant assessed as percent of control at 2000 nM by KINOMEscan assay relative to control; set-up: scale not given: the % may be the effect or the level left
[18] = target: Serine/threonine-protein kinase Nek9 (Homo sapiens) (UniProt Q8TD19); test: Inhibition of human NEK9 assessed as percent of control at 2000 nM by KINOMEscan assay relative to control; set-up: scale not given: the % may be the effect or the level left
[19] = target: Interleukin-1 receptor-associated kinase 3 (Homo sapiens) (UniProt Q9Y616); test: Inhibition of human IRAK3 assessed as percent of control at 2000 nM by KINOMEscan assay relative to control; set-up: scale not given: the % may be the effect or the level left
[20] = target: Serine/threonine-protein kinase MARK2 (Homo sapiens) (UniProt Q7KZI7); test: Inhibition of human MARK2 assessed as percent of control at 2000 nM by KINOMEscan assay relative to control; set-up: scale not given: the % may be the effect or the level left
Myc-CaP = test: Antiproliferative activity against murine castration-resistant Myc-CaP cells at 1 uM assessed as growth inhibition relative to control; format: functional; details: Mus musculus
[21] = target: G protein-coupled receptor kinase 3 (Homo sapiens) (UniProt P35626); test: Inhibition of human GRK3 assessed as percent of control at 2000 nM by KINOMEscan assay relative to control; set-up: scale not given: the % may be the effect or the level left
[22] = target: Death-associated protein kinase 1 (Homo sapiens) (UniProt P53355); test: Inhibition of human DAPK1 assessed as percent of control at 2000 nM by KINOMEscan assay relative to control; set-up: scale not given: the % may be the effect or the level left
[23] = target: Fibroblast growth factor receptor 4 (Homo sapiens) (UniProt P22455); test: Inhibition of human FGFR4 assessed as percent of control at 2000 nM by KINOMEscan assay relative to control; set-up: scale not given: the % may be the effect or the level left
[24] = target: Tyrosine-protein kinase JAK1 (Homo sapiens) (UniProt P23458); test: Inhibition of human JAK1 JH2 pseudokinase domain assessed as percent of control at 2000 nM by KINOMEscan assay relative to control; set-up: scale not given: the % may be the effect or the level left
[25] = target: Calcium/calmodulin-dependent protein kinase type II subunit beta (Homo sapiens) (UniProt Q13554); test: Inhibition of human CAMK2B assessed as percent of control at 2000 nM by KINOMEscan assay relative to control; set-up: scale not given: the % may be the effect or the level left
[26] = target: Ephrin type-A receptor 8 (Homo sapiens) (UniProt P29322); test: Inhibition of human EPHA8 assessed as percent of control at 2000 nM by KINOMEscan assay relative to control; set-up: scale not given: the % may be the effect or the level left
[27] = target: 5'-AMP-activated protein kinase catalytic subunit alpha-1 (Homo sapiens) (UniProt Q13131); test: Inhibition of human AMPK-alpha1 assessed as percent of control at 2000 nM by KINOMEscan assay relative to control; set-up: scale not given: the % may be the effect or the level left
[28] = target: Casein kinase I isoform gamma-1 (Homo sapiens) (UniProt Q9HCP0); test: Inhibition of human CSNK1G1 assessed as percent of control at 2000 nM by KINOMEscan assay relative to control; set-up: scale not given: the % may be the effect or the level left
[29] = target: Serine/threonine-protein kinase 25 (Homo sapiens) (UniProt O00506); test: Inhibition of human YSK1 assessed as percent of control at 2000 nM by KINOMEscan assay relative to control; set-up: scale not given: the % may be the effect or the level left

Proto-oncogene tyrosine-protein kinase receptor Ret (Homo sapiens), P07949 [M918T], sequence (P07949 whole entry M918T): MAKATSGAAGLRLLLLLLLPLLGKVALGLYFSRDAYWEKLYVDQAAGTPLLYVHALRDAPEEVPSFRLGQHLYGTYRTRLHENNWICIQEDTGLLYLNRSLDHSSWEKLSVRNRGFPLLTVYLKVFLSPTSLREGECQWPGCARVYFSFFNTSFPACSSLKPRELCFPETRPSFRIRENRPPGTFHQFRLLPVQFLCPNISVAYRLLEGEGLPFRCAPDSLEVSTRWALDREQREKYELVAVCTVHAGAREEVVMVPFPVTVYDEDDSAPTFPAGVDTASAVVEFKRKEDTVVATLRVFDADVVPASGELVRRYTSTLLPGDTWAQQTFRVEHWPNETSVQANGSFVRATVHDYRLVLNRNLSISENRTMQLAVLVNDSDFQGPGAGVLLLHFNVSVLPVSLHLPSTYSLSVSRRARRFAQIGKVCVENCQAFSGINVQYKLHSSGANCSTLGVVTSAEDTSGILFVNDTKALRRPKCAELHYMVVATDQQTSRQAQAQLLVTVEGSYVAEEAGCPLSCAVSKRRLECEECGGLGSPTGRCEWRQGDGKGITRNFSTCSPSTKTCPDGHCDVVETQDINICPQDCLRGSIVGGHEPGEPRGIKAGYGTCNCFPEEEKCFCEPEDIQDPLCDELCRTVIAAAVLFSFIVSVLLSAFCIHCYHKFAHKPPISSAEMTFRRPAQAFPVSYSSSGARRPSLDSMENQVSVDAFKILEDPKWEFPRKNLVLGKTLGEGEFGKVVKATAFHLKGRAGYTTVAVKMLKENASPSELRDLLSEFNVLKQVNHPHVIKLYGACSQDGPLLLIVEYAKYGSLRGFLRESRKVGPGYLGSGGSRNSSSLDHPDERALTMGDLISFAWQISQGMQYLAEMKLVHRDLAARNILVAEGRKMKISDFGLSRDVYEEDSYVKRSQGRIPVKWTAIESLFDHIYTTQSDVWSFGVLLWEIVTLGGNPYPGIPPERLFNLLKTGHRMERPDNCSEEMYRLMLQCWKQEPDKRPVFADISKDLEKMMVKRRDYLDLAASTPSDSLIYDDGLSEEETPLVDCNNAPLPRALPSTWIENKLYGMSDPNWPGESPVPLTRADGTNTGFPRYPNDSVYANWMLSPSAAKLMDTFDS
Interleukin-1 receptor-associated kinase 3 (Homo sapiens), sequence (Q9Y616 whole entry): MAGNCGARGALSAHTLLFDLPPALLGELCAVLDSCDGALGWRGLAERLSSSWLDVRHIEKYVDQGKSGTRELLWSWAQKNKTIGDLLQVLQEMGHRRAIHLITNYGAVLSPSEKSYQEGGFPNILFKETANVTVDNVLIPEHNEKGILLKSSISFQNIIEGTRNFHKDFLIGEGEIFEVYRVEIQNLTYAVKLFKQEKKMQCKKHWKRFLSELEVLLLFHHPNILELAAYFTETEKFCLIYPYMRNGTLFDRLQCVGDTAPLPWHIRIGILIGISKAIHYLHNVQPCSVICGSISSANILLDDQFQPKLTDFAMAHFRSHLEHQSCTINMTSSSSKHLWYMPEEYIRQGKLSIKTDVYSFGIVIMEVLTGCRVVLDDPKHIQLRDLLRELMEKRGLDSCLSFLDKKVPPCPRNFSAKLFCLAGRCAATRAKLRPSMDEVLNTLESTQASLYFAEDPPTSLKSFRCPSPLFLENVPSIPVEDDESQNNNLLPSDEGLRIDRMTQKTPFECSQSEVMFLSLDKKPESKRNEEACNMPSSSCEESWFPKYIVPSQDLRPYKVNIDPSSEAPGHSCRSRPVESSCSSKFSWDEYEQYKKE
Ephrin type-B receptor 6 (Homo sapiens), sequence (O15197 whole entry): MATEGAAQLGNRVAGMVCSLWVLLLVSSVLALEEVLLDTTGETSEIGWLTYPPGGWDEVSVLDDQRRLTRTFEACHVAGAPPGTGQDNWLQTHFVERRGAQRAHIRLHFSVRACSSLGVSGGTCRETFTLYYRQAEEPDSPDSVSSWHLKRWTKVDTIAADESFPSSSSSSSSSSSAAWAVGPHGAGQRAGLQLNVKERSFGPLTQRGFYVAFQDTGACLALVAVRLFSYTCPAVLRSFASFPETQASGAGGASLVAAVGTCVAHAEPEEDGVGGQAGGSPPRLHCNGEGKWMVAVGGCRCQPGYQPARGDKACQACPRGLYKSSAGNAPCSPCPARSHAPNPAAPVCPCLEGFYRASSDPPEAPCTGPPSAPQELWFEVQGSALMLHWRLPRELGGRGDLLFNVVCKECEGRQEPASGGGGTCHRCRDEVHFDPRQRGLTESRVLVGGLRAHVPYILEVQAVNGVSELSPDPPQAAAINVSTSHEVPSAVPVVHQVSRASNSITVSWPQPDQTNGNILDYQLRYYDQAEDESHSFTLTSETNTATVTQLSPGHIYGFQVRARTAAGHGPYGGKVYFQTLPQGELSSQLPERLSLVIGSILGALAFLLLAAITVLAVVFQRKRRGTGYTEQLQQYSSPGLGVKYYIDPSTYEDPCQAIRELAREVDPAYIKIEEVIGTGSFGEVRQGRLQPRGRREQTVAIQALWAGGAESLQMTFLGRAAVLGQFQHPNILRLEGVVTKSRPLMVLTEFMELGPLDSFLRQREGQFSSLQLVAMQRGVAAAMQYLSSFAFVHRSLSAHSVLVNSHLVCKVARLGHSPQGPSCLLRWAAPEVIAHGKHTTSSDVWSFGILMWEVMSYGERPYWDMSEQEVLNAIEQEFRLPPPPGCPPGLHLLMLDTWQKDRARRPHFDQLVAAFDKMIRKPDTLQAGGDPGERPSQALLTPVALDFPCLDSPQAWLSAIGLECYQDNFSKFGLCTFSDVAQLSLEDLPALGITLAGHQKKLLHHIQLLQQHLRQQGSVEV
Phosphatidylinositol 4,5-bisphosphate 3-kinase catalytic subunit alpha isoform (Homo sapiens), P42336 [H1047L], sequence (P42336 whole entry H1047L, canonical isoform): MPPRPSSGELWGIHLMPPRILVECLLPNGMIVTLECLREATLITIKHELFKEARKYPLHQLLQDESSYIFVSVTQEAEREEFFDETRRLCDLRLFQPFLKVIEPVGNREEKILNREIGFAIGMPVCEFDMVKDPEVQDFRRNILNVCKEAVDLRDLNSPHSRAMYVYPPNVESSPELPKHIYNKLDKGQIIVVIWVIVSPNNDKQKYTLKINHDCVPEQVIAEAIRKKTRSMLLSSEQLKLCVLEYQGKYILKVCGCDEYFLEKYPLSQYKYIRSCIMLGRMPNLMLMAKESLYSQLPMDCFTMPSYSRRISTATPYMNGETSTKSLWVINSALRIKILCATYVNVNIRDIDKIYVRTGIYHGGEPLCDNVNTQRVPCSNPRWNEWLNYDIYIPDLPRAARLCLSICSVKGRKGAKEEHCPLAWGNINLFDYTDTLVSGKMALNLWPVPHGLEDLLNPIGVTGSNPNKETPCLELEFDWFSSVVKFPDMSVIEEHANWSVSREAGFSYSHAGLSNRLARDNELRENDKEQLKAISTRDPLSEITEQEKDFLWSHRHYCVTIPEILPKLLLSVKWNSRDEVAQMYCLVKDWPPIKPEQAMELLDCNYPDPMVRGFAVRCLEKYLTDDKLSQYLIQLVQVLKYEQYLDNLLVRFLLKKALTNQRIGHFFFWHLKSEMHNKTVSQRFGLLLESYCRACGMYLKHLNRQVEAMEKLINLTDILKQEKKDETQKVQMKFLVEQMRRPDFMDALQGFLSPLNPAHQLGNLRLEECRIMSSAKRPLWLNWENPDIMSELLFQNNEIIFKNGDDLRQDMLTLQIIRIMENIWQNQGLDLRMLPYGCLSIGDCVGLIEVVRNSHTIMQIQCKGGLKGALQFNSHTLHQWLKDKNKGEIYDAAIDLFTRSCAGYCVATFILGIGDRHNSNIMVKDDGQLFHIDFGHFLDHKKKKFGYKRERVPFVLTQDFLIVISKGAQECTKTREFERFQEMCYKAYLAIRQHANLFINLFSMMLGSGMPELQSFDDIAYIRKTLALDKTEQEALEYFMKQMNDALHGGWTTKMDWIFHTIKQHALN
Ephrin type-A receptor 8 (Homo sapiens), sequence (P29322 whole entry): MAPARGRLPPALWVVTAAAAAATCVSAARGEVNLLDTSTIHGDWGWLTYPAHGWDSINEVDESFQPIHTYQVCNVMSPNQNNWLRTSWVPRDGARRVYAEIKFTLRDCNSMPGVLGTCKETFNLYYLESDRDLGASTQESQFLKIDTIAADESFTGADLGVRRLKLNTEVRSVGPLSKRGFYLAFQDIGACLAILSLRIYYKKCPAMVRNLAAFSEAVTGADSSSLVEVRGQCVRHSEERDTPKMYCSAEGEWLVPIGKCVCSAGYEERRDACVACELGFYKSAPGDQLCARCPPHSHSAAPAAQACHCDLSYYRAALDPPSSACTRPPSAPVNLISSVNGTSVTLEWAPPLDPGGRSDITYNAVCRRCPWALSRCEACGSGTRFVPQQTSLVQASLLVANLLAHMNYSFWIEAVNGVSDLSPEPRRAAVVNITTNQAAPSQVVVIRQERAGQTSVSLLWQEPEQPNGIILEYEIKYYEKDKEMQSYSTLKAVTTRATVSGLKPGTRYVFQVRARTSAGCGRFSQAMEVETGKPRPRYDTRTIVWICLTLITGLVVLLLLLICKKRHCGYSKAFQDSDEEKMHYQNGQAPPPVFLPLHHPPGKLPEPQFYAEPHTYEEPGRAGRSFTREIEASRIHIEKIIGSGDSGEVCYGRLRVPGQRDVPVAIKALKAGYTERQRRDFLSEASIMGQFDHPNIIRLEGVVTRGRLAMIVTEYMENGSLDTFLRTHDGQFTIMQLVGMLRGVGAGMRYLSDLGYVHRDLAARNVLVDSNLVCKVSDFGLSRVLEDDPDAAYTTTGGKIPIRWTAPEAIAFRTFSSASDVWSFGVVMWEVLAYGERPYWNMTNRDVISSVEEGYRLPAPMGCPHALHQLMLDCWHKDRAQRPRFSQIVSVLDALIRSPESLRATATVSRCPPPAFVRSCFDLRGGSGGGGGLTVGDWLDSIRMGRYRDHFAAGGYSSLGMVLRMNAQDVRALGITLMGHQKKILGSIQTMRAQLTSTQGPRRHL

`CN(C)C(=O)c1ccc(N2CCCN(c3ccnc4sc(C(N)=O)c(N)c34)CC2)cc1` was tested. Which Activity [1] did it give?
Its Activity is 95%.

And the Activity [2]?
Its Activity is 98%.

What about the Activity [3] of the same molecule?
Its Activity is 90% and 77%.

What about the Activity [4] of the same molecule?
The Activity was 89% and 97%.

What about the Activity [5] of the same molecule?
The Activity was 94% and 100%.

And the Activity [6]?
The Activity was 94% and 83%.

What about the Activity [7] of the same molecule?
Its Activity is 100%.

What about the Activity ([7]; INHIBITOR) of the same molecule?
Its Activity is 46%.

And the Activity [8]?
Its Activity is 86% and 92%.

And the Activity [9]?
The Activity was 95% and 89%.

What about the Activity [10] of the same molecule?
Its Activity is 93% and 99%.

And the Activity (CWR22R)?
Its Activity is “Active”.

And the Activity [11]?
Its Activity is 95% and 100%.

What about the Activity [12] of the same molecule?
The Activity was 93% and 100%.

And the Activity [13]?
The Activity was 87% and 93%.

What about the Activity [14] of the same molecule?
The Activity was 100% and 97%.

What about the Activity [15] of the same molecule?
The Activity was 100% and 95%.

And the Activity [16]?
The Activity was 94% and 80%.

What about the Activity [17] of the same molecule?
The Activity was 100% and 78%.

And the Activity [18]?
Its Activity is 100% and 89%.

And the Activity [19]?
The Activity was 93% and 89%.

What about the Activity [20] of the same molecule?
The Activity was 100% and 96%.

And the Activity (Myc-CaP)?
The Activity was “Active”.

And the Activity [21]?
Its Activity is 99% and 87%.

What about the Activity [22] of the same molecule?
The Activity was 92% and 88%.

And the Activity [23]?
The Activity was 100% and 96%.

And the Activity [24]?
The Activity was 89%.

And the Activity [25]?
The Activity was 92% and 87%.

And the Activity [26]?
The Activity was 94% and 83%.

And the Activity [27]?
The Activity was 100%.

What about the Activity [28] of the same molecule?
Its Activity is 90% and 80%.

What about the Activity [29] of the same molecule?
Its Activity is 76% and 98%.
